Assay [1] deals with T1, Human recombinant PDE2A (hPDE2A) (Homo sapiens, UniProt O00408).
T1 construct: made in house; host or cells: Sf9 insect cells (baculovirus)
In words: In vitro assay PDE2A (SPA, 3H-cGMP). Type of assay: biochemical. As for the experimental part: Human recombinant PDE2A (hPDE2A) was expressed in Sf9 cells using a recombinant rPDE10A baculovirus construct. Cells were harvested after 48 h of infection and the hPDE2A protein was purified by metal chelate chromatography on Ni-sepharose 6FF. Tested compounds were dissolved and diluted in 100% DMSO to a concentration 100 fold of the final concentration in the assay. Compound dilutions (0.4 μl) were added in 384 well plates to 20 μl of incubation buffer (50 mM Tris pH 7.8, 8.3 mM MgCl2, 1.7 mM EGTA). 10 μl of hPDE2A enzyme in incubation buffer was added and the reaction was started by addition of 10 μl substrate to a final concentration of 10 μM cGMP and 0.01 μCi ^3H-cGMP. The reaction was incubated for 45 minutes at room temperature. […] After sedimentation of the beads during 30 minutes the radioactivity was measured in a Perkin Elmer Topcount scintillation counter and results were expressed as cpm. For blanc values the enzyme was omitted from the reaction and replaced by incubation buffer. Control values were obtained by addition of a final concentration of 1% DMSO instead of compound.

The next assay has as its system hPDE3B. The assay can be described thus: In vitro assay PDE3 (SPA, 3H-cAMP). Type of assay: biochemical, human. Particulars: 0.4 μM cAMP substrate; for hPDE3B Emax: in % (unit assumed).
The next assay concerns the target hPDE10A2 (Homo sapiens, UniProt Q9Y233). The assay can be described thus: biochemical. Particulars: 60 nM cAMP substrate; for IC50: human clone, read-out: hPDE10A2 or rPDE10A2 pIC50 (converted); for Emax: read-out: hPDE10A2 or rPDE10A2 Emax, human clone. The protocol:
Rat recombinant PDE10A (rPDE10A2) was expressed in Sf9 cells using a recombinant rPDE10A baculovirus construct. Cells were harvested after 48 h of infection and the rPDE10A protein was purified by metal chelate chromatography on Ni-sepharose 6FF. Tested compounds were dissolved and diluted in 100% DMSO to a concentration 100 fold of the final concentration in the assay. Human recombinant PDE10A ([…]) was expressed in Sf9 cells using a recombinant hPDE10A baculovirus that was made and amplified in house. Cells were harvested after 72 h of infection and the hPDE10A protein was purified by metal chelate chromatography on Ni-sepharose. Compound dilutions (0.4 μl) were added in 384 well plates to 20 μl of incubation buffer (50 mM Tris pH 7.8, 8.3 mM MgCl2, 1.7 mM EGTA). 10 μl of rPDE10A or hPDE10A enzyme in incubation buffer was added and the reaction was started by addition of 10 μl substrate to a final concentration of 60 nM cAMP and […] ^3H-cAMP. The reaction was incubated for 60 minutes at room temperature. After incubation, the reaction was stopped with 20 μl of stop solution consisting of 17.8 mg/ml PDE SPA (scintillation proximity assay) beads. After sedimentation of the beads during 30 minutes the radioactivity was measured in a Perkin Elmer Topcount scintillation counter and results were expressed as cpm. For blanc values the enzyme was omitted from the reaction and replaced by incubation buffer. Control values were obtained by addition of a final concentration of 1% DMSO instead of compound. A best fit curve is fitted by a minimum sum of squares method to the plot of % of control value substracted with blanc value versus compound concentration and the half maximal inhibitory concentration (IC50) value is derived from this curve.

The mark [2] stands for this setting: 10 μM cGMP substrate, read-out: hPDE2A pIC50 (converted).
The mark [3] stands for this setting: hPDE2A pIC50, 10 μM cGMP substrate.

Read-outs that look alike come from different tables or passages of the source. Bounds are passed on as bounds.

T1 sequence (O00408 whole entry): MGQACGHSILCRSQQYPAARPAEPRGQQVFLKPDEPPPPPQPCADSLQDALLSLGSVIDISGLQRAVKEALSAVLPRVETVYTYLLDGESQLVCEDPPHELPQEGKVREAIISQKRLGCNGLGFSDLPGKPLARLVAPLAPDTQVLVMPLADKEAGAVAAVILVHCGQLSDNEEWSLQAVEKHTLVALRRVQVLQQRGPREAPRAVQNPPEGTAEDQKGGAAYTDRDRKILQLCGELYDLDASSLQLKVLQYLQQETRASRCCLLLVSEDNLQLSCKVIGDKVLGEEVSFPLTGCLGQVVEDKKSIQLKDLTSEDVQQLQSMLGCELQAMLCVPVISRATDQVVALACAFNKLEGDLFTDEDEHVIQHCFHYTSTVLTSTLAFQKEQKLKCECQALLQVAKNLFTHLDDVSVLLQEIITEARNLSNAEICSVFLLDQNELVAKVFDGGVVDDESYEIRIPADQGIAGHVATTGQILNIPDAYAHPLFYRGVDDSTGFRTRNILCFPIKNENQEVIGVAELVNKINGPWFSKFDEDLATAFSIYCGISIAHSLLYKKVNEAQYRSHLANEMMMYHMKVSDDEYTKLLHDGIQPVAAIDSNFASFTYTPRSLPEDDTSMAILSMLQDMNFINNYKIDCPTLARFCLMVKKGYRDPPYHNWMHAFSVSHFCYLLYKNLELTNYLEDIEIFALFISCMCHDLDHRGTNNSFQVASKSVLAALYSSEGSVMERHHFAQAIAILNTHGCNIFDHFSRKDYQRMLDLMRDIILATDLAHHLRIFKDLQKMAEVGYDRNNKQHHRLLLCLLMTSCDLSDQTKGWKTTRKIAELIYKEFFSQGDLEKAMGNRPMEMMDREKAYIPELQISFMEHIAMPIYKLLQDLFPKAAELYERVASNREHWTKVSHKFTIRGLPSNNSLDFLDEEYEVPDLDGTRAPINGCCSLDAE
Chain of hPDE10A2 (Q9Y233 267-1055): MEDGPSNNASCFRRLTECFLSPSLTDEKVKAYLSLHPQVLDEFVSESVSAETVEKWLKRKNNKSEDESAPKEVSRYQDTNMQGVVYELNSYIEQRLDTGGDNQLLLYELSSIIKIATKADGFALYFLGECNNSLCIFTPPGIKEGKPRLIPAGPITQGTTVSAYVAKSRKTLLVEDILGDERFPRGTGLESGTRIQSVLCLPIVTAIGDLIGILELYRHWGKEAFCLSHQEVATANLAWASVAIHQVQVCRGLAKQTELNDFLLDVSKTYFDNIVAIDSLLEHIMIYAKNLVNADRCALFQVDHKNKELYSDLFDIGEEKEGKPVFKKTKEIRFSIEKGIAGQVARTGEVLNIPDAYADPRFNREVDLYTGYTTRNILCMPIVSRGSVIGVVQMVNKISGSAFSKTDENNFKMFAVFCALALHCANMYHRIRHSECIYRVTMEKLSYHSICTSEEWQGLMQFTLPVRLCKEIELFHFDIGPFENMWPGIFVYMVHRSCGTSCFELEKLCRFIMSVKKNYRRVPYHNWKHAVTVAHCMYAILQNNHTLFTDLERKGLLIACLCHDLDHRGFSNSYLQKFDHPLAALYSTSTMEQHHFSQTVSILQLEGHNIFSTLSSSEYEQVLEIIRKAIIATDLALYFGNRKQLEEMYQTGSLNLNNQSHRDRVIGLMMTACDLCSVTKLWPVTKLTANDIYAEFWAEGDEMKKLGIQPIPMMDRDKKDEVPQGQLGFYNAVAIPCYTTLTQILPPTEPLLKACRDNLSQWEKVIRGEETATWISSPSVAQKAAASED

With `C[C@@H]1CCN(Cc2ccccc2)C[C@H]1c1cc(C(F)F)nc2ncnn12` [Compound 20], in assay [1] (10 μM cGMP substrate), the maximal effect (Emax) came out at 97%. Also, the IC50 in assay [1] (setting [2]) is 0.457 µM. Also, in the assay on hPDE3B, the “hPDE3B pIC50” value is recorded as under 5 and the “hPDE3B Emax” value was found to be 23. For the same molecule, on hPDE10A2, the IC50 was over 10 µM and the Emax worked out at 26%.
With `C[C@@H]1CCN(Cc2ccc(C#N)cc2)C[C@H]1c1cc(C(F)F)nc2ncnn12` [Compound 21], the IC50 in assay [1] is 0.468 µM. Further, in assay [1] (10 μM cGMP substrate), the Emax came to 97%. In the assay on hPDE3B, the “hPDE3B pIC50” value is reported as under 5 and the “hPDE3B Emax” value came out at 24. Also, on hPDE10A2, the IC50 was about 10 µM and the Emax came to 48%.
For the molecule `C[C@@H]1CCN(Cc2cccc(OC(F)F)c2)C[C@H]1c1cc(C(F)F)nc2ncnn12` [Compound 22], the IC50 in assay [1] was 0.562 µM. In assay [1] (10 μM cGMP substrate), the Emax turned out to be 95%. In addition, in the assay on hPDE3B, the “hPDE3B pIC50” value was under 5 and the “hPDE3B Emax” value is 42. For the same molecule, at hPDE10A2, the IC50 is 7.76 µM and the Emax was determined as 61%.
Consider `C[C@@H]1CCN(Cc2ccc(OC(F)(F)F)cc2)C[C@H]1c1cc(C(F)F)nc2ncnn12` [Compound 23], for which the Emax in assay [1] (10 μM cGMP substrate) stood at 97%; at hPDE10A2, 62%. Besides, the IC50 in assay [1] (setting [2]) is 0.575 µM; on hPDE10A2, 6.92 µM. In addition, in the assay with hPDE3B, the “hPDE3B pIC50” value was determined as 5.14. Moreover, the “hPDE3B Emax” value in the assay on hPDE3B was 49.
With `C[C@@H]1CCN(Cc2cccc(C#N)n2)C[C@H]1c1cc(C(F)F)nc2ncnn12` [Compound 25], in assay [1] (10 μM cGMP substrate), the Emax came out at 92%. Moreover, the IC50 in assay [1] (setting [3]) is 1.02 µM. In the assay on hPDE3B, the “hPDE3B pIC50” value was under 5 and the “hPDE3B Emax” value came out at 12. On hPDE10A2, the IC50 was over 10 µM and the Emax turned out to be 28%.
For `C[C@@H]1CCN(CC2CCOCC2)C[C@H]1c1cc(C(F)F)nc2ncnn12.Cl` [Compound 26], the Emax in assay [1] (10 μM cGMP substrate) amounted to 27%. The IC50 in assay [1] (setting [3]) was about 3.09 µM. Besides, in the assay on hPDE3B, the “hPDE3B pIC50” value is given as under 5 and the “hPDE3B Emax” value was 12. Besides, on hPDE10A2, the IC50 is over 10 µM and the maximum response (Emax) turned out to be 12%.
Consider `C[C@H]1CCN(CC2CCOCC2)C[C@@H]1c1cc(C(F)F)nc2ncnn12.Cl` [Compound 27], for which the maximal effect (Emax) in assay [1] (10 μM cGMP substrate) worked out at 20%. Besides, the IC50 in assay [1] (setting [3]) is about 4.9 µM. In addition, in the assay on hPDE3B, the “hPDE3B pIC50” value was under 5 and the “hPDE3B Emax” value is recorded as 3. In addition, on hPDE10A2, the IC50 is over 10 µM and the Emax turned out to be 11%.
Take `CC(C)CN1CC[C@@H](C)[C@H](c2cc(C(F)F)nc3ncnn23)C1` [Compound 29]: the Emax (in assay [1] (10 μM cGMP substrate); at hPDE10A2) was 3% throughout. For the same molecule, the IC50 in assay [1] (setting [3]) was about 8.71 µM; at hPDE10A2, over 10 µM. In addition, in the assay on hPDE3B, the “hPDE3B pIC50” value is listed as under 5. The “hPDE3B Emax” value in the assay on hPDE3B was −14.
`C[C@@H]1CCN(Cc2ccc(F)c(C(F)(F)F)c2)C[C@H]1c1cc(C(F)F)nc2ncnn12` [Compound 30]: the IC50 in assay [1] is 0.49 µM. The Emax in assay [1] (10 μM cGMP substrate) stood at 99%. In the assay on hPDE3B, the “hPDE3B pIC50” value was under 5 and the “hPDE3B Emax” value turned out to be 21. For the same molecule, on hPDE10A2, the IC50 was 7.94 µM and the maximum response (Emax) turned out to be 55%.
For the molecule `C[C@@H]1CCN(Cc2cn(C)c3ccccc23)C[C@H]1c1cc(C(F)F)nc2ncnn12.Cl` [Compound 35], the maximum response (Emax) in assay [1] (10 μM cGMP substrate) was 102%; on hPDE10A2, 53%. The figures for the IC50 (in assay [1] (setting [3]); at hPDE10A2) were 0.0479 µM and 7.59 µM, respectively. For the same molecule, the “hPDE3B pIC50” value in the assay on hPDE3B was under 5. For the same molecule, in the assay with hPDE3B, the “hPDE3B Emax” value was 22.
As to `C[C@@H]1CCN(Cc2cc3ccccc3o2)C[C@H]1c1cc(C(F)F)nc2ncnn12.Cl` [Compound 38], the Emax in assay [1] (10 μM cGMP substrate) was 88%. Moreover, the IC50 in assay [1] (setting [3]) is 0.162 µM. Also, in the assay with hPDE3B, the “hPDE3B pIC50” value is under 5 and the “hPDE3B Emax” value amounted to 28. For the same molecule, at hPDE10A2, the IC50 is 4.68 µM and the Emax was 69%.
Consider `C[C@@H]1CCN(Cc2ccc(F)c(F)c2)C[C@H]1c1cc(C(F)F)nc2ncnn12.Cl` [Compound 40], for which the Emax in assay [1] (10 μM cGMP substrate) amounted to 42%. Besides, the IC50 in assay [1] (setting [2]) was 1.12 µM. Besides, in the assay with hPDE3B, the “hPDE3B pIC50” value is reported as under 5 and the “hPDE3B Emax” value is recorded as 10. For the same molecule, at hPDE10A2, the IC50 was over 10 µM and the Emax stood at 35%.
